Reference: patent US7238779B2, “Acyl CoA:cholesterol acyltransferase (ACAT-2)” (The Regents of the University of California, priority 1998, dated 2007)

Test system: ACAT-2 protein
Assay: inhibition of ACAT-2 protein activity
Type: biochemical
Settings: general statement, concentration not given

Structure (SMILES) | activity of the ACAT-2 protein is inhibited by the compound
CC(C)c1cc(C(C)C)c(CC(=O)NS(=O)(=O)Oc2c(C(C)C)cccc2C(C)C)c(C(C)C)c1 [CI-1011] | inhibited
CC(=O)[C@H]1CC[C@H]2[C@@H]3CCC4=CC(=O)CC[C@]4(C)[C@H]3CC[C@]12C [progesterone] | inhibited
CCCCCCCCCCC(C)(C)C(=O)Nc1c(OC)cc(OC)cc1OC [CI-976] | inhibited
O=C(O)c1cc[c]([Hg][OH])cc1 [PHMB] | inhibited
CC(C)c1cccc(C(C)C)c1NC(=O)NCC1(c2ccc(N(C)C)cc2)CCCC1.Cl [PD 132301-2] | inhibited
O=S(=O)(F)Cc1ccccc1 [PMSF] | inhibited
